Target: Carbonic anhydrase 9 (Homo sapiens, UniProt Q16790)
Experiment: Inhibition of human carbonic anhydrase-9 incubated for 10 mins prior to testing by stopped-flow CO2 hydrase assay

Point of comparison: `Cc1ccc(C2=NN(c3ccc(S(N)(=O)=O)cc3)C(c3c(C)nn(-c4ccc(S(N)(=O)=O)cc4)c3Cl)C2)cc1` (configuration not stated), Ki 0.0707 µM. Against it:
- Cc1nn(-c2ccc(S(N)(=O)=O)cc2)c(Cl)c1C1CC(c2ccc(F)cc2)=NN1c1ccc(S(N)(=O)=O)cc1 (configuration not stated) — 1.6-fold lower, 0.0447 µM
- CC(=O)N1N=C(c2ccccc2)CC1c1c(C)nn(-c2ccc(S(N)(=O)=O)cc2)c1Cl (configuration not stated) — within 1.5-fold, 0.0631 µM
- CC(=O)N1N=C(c2ccc(Cl)cc2)CC1c1c(C)nn(-c2ccc(S(N)(=O)=O)cc2)c1Cl (configuration not stated) — 2.3-fold lower, 0.0308 µM
- Cc1nn(-c2ccc(S(N)(=O)=O)cc2)c(Cl)c1C1CC(c2ccc(Br)cc2)=NN1c1ccc(S(N)(=O)=O)cc1 (configuration not stated) — 1.6-fold lower, 0.0444 µM
- COc1ccc(C2=NN(C(C)=O)C(c3c(C)nn(-c4ccc(S(N)(=O)=O)cc4)c3Cl)C2)cc1 (configuration not stated) — within 1.5-fold, 0.0569 µM
- CC(=O)N1N=C(c2ccc(Br)cc2)CC1c1c(C)nn(-c2ccc(S(N)(=O)=O)cc2)c1Cl (configuration not stated) — within 1.5-fold, 0.0672 µM
- Cc1nn(-c2ccc(S(N)(=O)=O)cc2)c(Cl)c1C1CC(c2ccc(Cl)cc2)=NN1c1ccc(S(N)(=O)=O)cc1 (configuration not stated) — 2.1-fold lower, 0.0329 µM
- COc1ccc(C2=NN(c3ccc(S(N)(=O)=O)cc3)C(c3c(C)nn(-c4ccc(S(N)(=O)=O)cc4)c3Cl)C2)cc1 (configuration not stated) — within 1.5-fold, 0.0524 µM
- CC(=O)N1N=C(c2ccc(C)cc2)CC1c1c(C)nn(-c2ccc(S(N)(=O)=O)cc2)c1Cl (configuration not stated) — within 1.5-fold, 0.0671 µM
- Cc1nn(-c2ccc(S(N)(=O)=O)cc2)c(Cl)c1C1CC(c2ccccc2)=NN1c1ccc(S(N)(=O)=O)cc1 (configuration not stated) — within 1.5-fold, 0.0716 µM
- CC(=O)N1N=C(c2ccc(F)cc2)CC1c1c(C)nn(-c2ccc(S(N)(=O)=O)cc2)c1Cl (configuration not stated) — 10-fold lower, 0.0069 µM

— ChEMBL document CHEMBL3600306, “Sulfonamide bearing pyrazolylpyrazolines as potent inhibitors of carbonic anhydrase isoforms I, II, IX and XII” (Bioorg Med Chem Lett, 2015)
